Measured values from the NIST ThermoML archive (doi:10.1021/je0501078).

Legend:
[1] = Crystal
[2] = Molar enthalpy of transition or fusion; details: Crystal
[3] = molar heat capacity at constant pressure; details: 101.33 kPa

O=C1CCCCC1C1(O)CCCCC1 (centres undefined) [1'-hydroxy-[1,1'-bicyclohexyl]-2-one]
Details | mass density, 292 K [kg/m3] | molar heat capacity at constant pressure, 306.75 K [J/K/mol] | molar heat capacity at constant pressure, 310 K [J/K/mol] | molar heat capacity at constant pressure, 320 K [J/K/mol] | molar heat capacity at constant pressure, 330 K [J/K/mol] | molar heat capacity at constant pressure, 340 K [J/K/mol] | molar heat capacity at constant pressure, 350 K [J/K/mol] | molar heat capacity at constant pressure, 360 K [J/K/mol] | molar heat capacity at constant pressure, 370 K [J/K/mol]
[1], 101.33 kPa, Pycnometric method | 1140 | – | – | – | – | – | – | – | –
[3], Liquid, Large sample (1 g) DSC | – | 350 | 352 | 359.3 | 367.5 | 376.8 | 387.2 | 398.7 | 411.2

Details | Molar enthalpy of transition or fusion, [2] [kJ/mol] | Triple point temperature, [1] [K]
Adiabatic calorimetry | 20.81 | 306.75
DSC | 20.7 | 306.9

[3], Crystal
Details | molar heat capacity at constant pressure [J/K/mol]
5 K | 0.496
10 K | 3.909
15 K | 10.08
20 K | 17.48
25 K | 25.17
30 K | 32.48
35 K | 39.18
40 K | 45.5
45 K | 51.25
50 K | 56.58
60 K | 66.47
70 K | 75.55
80 K | 84.14
90 K | 92.37
100 K | 100.7
110 K | 108.6
120 K | 116.4
130 K | 124.2
140 K | 132
150 K | 139.8
160 K | 147.7
170 K | 155.8
180 K | 163.9
190 K | 171.9
200 K | 180
210 K | 188.2
220 K | 196.6
230 K | 205.1
240 K | 213.9
250 K | 223.2
260 K | 233.2
270 K | 243.9
280 K | 255.5
290 K | 268
300 K | 281.5
306.75 K | 291.3
